From ChEMBL document CHEMBL1201862, “PubChem BioAssay data set” (2004)
Activity calls are given as the source filed them.

Assays:
[1] = target: Photoreceptor-specific nuclear receptor (Homo sapiens, UniProt Q9Y5X4); format: functional, cell-based;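 further: CHO-S cells with Gal4-NCOR and VP16-NR2E3 two-hybrid luciferase reporter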
[2] = target: T1, Corticotropin-releasing factor receptor 2/Corticotropin-releasing factor-binding protein (Homo sapiens, UniProt P24387+Q13324); experiment: Dose Response confirmation of uHTS hits for small molecule antagonists of the CRF-binding protein and CRF-R2 receptor complex.; format: functional; conditions: read-out: IC50_Mean
T1 sequence (Q13324 whole entry): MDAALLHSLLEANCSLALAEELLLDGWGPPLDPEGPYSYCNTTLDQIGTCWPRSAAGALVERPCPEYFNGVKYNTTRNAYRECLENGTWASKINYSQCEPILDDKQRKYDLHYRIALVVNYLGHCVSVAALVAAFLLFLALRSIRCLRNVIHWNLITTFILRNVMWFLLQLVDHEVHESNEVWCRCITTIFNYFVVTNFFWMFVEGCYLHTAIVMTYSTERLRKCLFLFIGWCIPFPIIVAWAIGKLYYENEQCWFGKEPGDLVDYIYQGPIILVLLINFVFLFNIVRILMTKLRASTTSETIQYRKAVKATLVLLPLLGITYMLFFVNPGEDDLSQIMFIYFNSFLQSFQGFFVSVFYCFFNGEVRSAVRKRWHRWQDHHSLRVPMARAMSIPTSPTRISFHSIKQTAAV
T1 sequence (P24387 whole entry): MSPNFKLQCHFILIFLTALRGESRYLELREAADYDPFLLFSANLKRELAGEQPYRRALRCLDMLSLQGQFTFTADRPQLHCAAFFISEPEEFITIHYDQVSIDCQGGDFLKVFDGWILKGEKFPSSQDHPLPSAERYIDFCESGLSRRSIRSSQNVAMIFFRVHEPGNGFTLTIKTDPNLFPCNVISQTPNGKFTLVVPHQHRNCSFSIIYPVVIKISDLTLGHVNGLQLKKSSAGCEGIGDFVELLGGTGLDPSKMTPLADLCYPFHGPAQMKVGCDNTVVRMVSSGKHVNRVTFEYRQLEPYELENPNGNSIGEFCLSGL

[3] = CRF-BP/CRF-R2 complex antagonists, dose response, cell-based, uHTS hits, 384-well (AID 651639); format: functional, Homo sapiens; conditions: read-out: IC50_Mean
[4] = target: T1, Corticotropin-releasing factor receptor 2/Corticotropin-releasing factor-binding protein; experiment: activators of CRF receptor 2 with binding protein – uHTS hits, confirmation (AID 602473); format: functional; conditions: read-out: EC50_Mean
[5] = StAR promoter reporter inhibition counter-screen, dose response, counter-screen for LRH-1 inverse agonist project, cell-based, luminescence, luciferase reporter (AID 651969); format: functional
[6] = target: Nuclear receptor subfamily 5 group A member 2 (Homo sapiens, UniProt O00482); format: functional, cell-based;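 further: HEK293T cells transfected with LRH-1 and a StAR promoter luciferase reporter; potency for inhibitors that lower LRH-1 driven reporter light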
[7] = target: Steroidogenic factor 1 (Homo sapiens, UniProt Q13285); experiment: Counterscreen for inverse agonists of the liver receptor homolog-1 (LRH-1; NR5A2): Luminescence-based cell-based high throughput dose response assay to identify inverse agonists of the Steroidogenic Factor 1 Nuclear Receptor (SF1; NR5A1).; format: functional
[8] = cells; format: functional, cell-based
[9] = cells; format: functional, cell-based; remark: listed apart in the source

Chain of Nuclear receptor subfamily 5 group A member 2 (O00482 whole entry): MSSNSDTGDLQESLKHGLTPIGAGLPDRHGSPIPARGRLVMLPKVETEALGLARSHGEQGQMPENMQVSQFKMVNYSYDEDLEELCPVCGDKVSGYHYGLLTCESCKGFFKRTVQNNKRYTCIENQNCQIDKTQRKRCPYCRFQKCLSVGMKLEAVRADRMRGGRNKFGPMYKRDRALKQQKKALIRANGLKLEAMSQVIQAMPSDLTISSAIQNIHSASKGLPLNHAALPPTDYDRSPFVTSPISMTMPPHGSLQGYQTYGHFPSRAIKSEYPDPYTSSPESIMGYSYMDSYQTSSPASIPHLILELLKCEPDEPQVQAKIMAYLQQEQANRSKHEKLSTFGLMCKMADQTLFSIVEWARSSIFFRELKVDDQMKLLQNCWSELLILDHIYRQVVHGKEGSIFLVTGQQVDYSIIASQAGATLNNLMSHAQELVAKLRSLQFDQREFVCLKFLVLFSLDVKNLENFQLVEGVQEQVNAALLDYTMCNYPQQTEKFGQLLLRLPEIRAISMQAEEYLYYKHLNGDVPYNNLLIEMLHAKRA
Chain of Steroidogenic factor 1 (Q13285 whole entry): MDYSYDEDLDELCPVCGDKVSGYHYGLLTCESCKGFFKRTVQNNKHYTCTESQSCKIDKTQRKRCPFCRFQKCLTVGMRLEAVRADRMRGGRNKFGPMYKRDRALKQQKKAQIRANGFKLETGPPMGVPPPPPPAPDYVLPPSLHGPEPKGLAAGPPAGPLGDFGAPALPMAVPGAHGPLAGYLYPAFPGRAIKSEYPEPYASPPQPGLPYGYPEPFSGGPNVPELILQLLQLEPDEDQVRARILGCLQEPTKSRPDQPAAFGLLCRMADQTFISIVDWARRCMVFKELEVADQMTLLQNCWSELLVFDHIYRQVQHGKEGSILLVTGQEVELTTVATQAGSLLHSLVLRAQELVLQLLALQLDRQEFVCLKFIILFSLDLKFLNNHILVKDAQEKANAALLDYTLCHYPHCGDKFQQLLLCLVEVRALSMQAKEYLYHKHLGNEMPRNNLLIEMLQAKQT
Chain of Photoreceptor-specific nuclear receptor (Q9Y5X4 whole entry, the tested form may be a part): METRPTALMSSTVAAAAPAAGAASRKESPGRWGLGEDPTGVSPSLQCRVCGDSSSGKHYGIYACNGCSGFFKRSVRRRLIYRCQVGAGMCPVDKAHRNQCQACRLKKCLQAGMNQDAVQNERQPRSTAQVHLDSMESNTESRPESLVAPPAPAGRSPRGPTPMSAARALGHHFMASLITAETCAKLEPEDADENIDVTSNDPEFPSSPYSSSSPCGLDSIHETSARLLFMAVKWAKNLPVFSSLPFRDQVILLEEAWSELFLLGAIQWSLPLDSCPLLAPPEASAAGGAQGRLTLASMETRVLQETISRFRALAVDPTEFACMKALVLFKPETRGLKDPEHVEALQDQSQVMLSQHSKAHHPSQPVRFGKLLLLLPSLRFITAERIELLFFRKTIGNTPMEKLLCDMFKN

Row | SMILES | IC50 [2] | IC50 [3] | EC50 [4] | further results
1 | O=C(Nc1cccc(NC(=O)c2c(F)cccc2F)n1)c1c(F)cccc1F |  |  |  | IC50 [1]: 2.98 µM (active)
2 | O=C(COC(=O)c1ccc(Br)cc1)Nc1ccccc1Br |  |  |  | IC50 [5]: 35.9 µM (inactive); IC50 [6]: 35.9 µM (inactive); IC50 [7]: 35.9 µM (inactive)
3 | O=C(N[C@H](C(=O)N1CCC[C@H]1C(=O)NCCc1ccccc1Cl)C1CCCCC1)c1cccs1 |  |  |  | IC50 [8]: > 29.9 µM (inactive); EC50 [9]: > 29.9 µM (inactive)

Continued, in another order:

Row | IC50 [2] | IC50 [3] | EC50 [4] | SMILES | further results
4 | 31.2 µM (active) | 3.74 µM (active) | > 53 µM (inactive) | Cc1cc(C)cc(Nc2c(F)c(F)c(F)c(F)c2C(=O)O)c1 | 
5 | < 0.368 µM (active) | > 20 µM (inactive) | > 53 µM (inactive) | Cc1ccc(S(=O)(=O)N2c3ccccc3OCC2c2ccccc2)cc1 (configuration not stated) | 
